# Assay results: patent publication US20240116850A1, “COMPOSITIONS AND METHODS RELATED TO BICYCLO[2.2.1] HEPTANAMINE-CONTAINING COMPOUNDS” (The Broad Institute, Inc., priority 2020, published 2024)
# Key:
# [1] = Dynamic Vapor Sorption (DVS) hygroscopicity; format: physicochemical; conditions: for hygroscopicity classification: DVS; for DVS (matrix of results from solid form characterization): summary grade Good/Moderate/Poor
# Method: Dynamic Vapor Sorption (DVS) was measured via a SMS (Surface Measurement Systems) DVS Intrinsic. The relative humidity at 25° C. were calibrated against the deliquescence point of LiCl, Mg(NO3)2 and KCl.
# [2] = Physical and chemical stability on storage (LC-MS and XRPD); format: physicochemical; conditions: for decomposition or solid form change in stability assay / Stability (matrix of results from solid form characterization): 1 week stability assay; for Solid Form after storage (XRPD) / Stability: 25/60% RH; 40 C./75% RH; 1 week / Form change?: 1 week; for Stability: 25/60% RH; 40 C./75% RH; 1 week / Form change?: BRD4780 salt solid form, 25/60% RH and 40 C./75% RH; for Stability: 25/60% RH; 40 C./75% RH; 1 week: impurities estimated by LCMS by observation of the TIC; for Form change?: solid form change (XRPD); for Stability (matrix of results from solid form characterization): summary grade Good/Moderate/Poor
# Method: To compare the physical/chemical stability of the salt candidates, approximate 10 mg of each solid sample was added to a 5-mL glass vial covered with Parafilm® with several pin-holes on it, and then stored under 25° C./60% RH and 40° C./75% RH. After one week storage, solids were taken out for LC-MS and XRPD test to evaluate physical and chemical stability.
# [3] = TGA and DSC thermal characterization of salts; format: physicochemical; conditions: summary grade Good/Moderate/Poor
# Method: TGA data were collected using a TA Discovery5500/Q5000 TGA from TA Instruments. DSC was performed using a TA Discovery2500/Q2000 DSC from TA Instruments.
# [4] = Equilibrium solubility in water and bio-relevant media (SGF, FaSSIF, FeSSIF); conditions: for solubility: thermodynamic from solid; for Solubility (matrix of results from solid form characterization): summary grade Good/Moderate/Poor
# MUC1-fs = experiment: High-content imaging assay of MUC1-fs total cytoplasm intensity in P cells; format: cell-based; conditions: for EC50: MUC1-fs total cytoplasm intensity, P cells, 48 hr incubation; for ECMax: MUC1-fs, DMSO = 0, JQ1 (250 nM) = −100% activity
# Method: (§1) P cells were seeded 24 hr prior to compound treatment at a density of 12,000 cells/well in 384 well Cell Carrier Ultra plates (6057308, Perkin Elmer), pre-coated with 0.25 mg/mL Synthemax 11 SC Substrate (3535, Corning). Compounds were used at 5 doses (35, 3.5, 0.35, 0.035 and 0.0035 μM) for the primary screen and 10 doses (16, 5.6, 1.8, 0.6, 0.21, 0.07, 0.02, 0.008, 0.002 and 0.0008 μM) for the following screens. The compounds, in two replicates, were transferred from compound source plates to the cell plates using the HighRes Pin Tool. DMSO was used as a negative control and JQ1 (250 nM) (a bromodomain inhibitor) was chosen as a positive control, based on earlier studies showing its potent effect on reducing total MUC1 mRNA levels (data not shown). After 48 hr incubation, cells were fixed for 20 min in 4% PFA (Electron Microscopy Sciences) in PBS, washed twice, then permeabilized (10 min) with 0.5% Triton-X100 (X100-100MVL, Sigma-Aldrich) in PBS and washed once more. Cells were blocked for 10 min at RT with Blocking solution (100 mM Tris HCL pH8; l150 mM NaCL; 5 g/L Blocking Reagent [11096176001, Roche]), then incubated 90 min at RT with one of the following primary antibodies in Roche Blocking solution: 1:500, monoclonal Fab-A-V5H anti-MUC1-fs, AbD22655.2, Bio-Rad; 1:2000, monoclonal mouse anti-MUC1 (214D4), 05-652-KC, Millipore; 1:1000, monoclonal, Rabbit anti-GM130 (D6B1) XP, 12480, Cell signaling technology. The primary antibody cocktail was incubated at RT for 1.5 hr, followed by four PBS wash cycles. The secondary antibody cocktail contained four components that were all prepared at a 1:1000 dilution in the Roche blocking solution and consisted of Alexa Fluor® 488-conjugated AffiniPure F(ab′)2 Fragment Goat anti-Human IgG, 109-546-097, Jackson Immunoresearch; Alexa Fluor® 647-conjugated Goat anti-Rabbit IgG, A-21246, Thermo Fisher Scientific®; Alexa Fluor® 546 Goat anti-mouse IgG, A-21123, Thermo Fisher Scientific® and Hoechst 33342 stain (62249, Thermo Fisher Scientific®). The secondary antibody cocktail was incubated at RT for 45 min, followed by four PBS wash cycles. Finally, plates were sealed with a Plate Loc plate and stored in Liconic incubator at 10° C. until imaging. Following image analysis, three parameters were selected, i) MUC1-fs and ii) MUC1-wt total cytoplasm intensity (averaged per cell) and iii) cell number as was detected by Hoechst 33342 stained nuclei. The levels of MUC1-fs and MUC1-wt found following DMSO and JQ1 were defined as 0 and −100% activity, respectively. The values obtained for all compounds were normalized accordingly. Cell number was normalized to DMSO control.
# (§2) The pure enantiomers were profiled in the high-content imaging assay for the ability to reduce the amount of FS MUC1 protein in the cytoplasm (Table 48) following the procedure of Example 4.
# MUC1-wt = experiment: High-content imaging assay of MUC1-wt total cytoplasm intensity in P cells; format: cell-based; conditions: for EC50: MUC1-wt total cytoplasm intensity, P cells, 48 hr incubation; for WT ECMax: MUC1-wt, DMSO = 0, JQ1 (250 nM) = −100% activity
# Method: as §1, §2
# [5] = fasted state simulated intestinal fluid (FaSSIF), pH 6.5, fassif, FaSSIF solubility, Fasted State Simulated Intestinal Fluid (pH 6.5)
# [6] = fed state simulated intestinal fluid (FeSSIF), pH 5, fessif, FeSSIF solubility, Fed State Simulated Intestinal Fluid (pH 5.0)
# [7] = simulated gastric fluid (SGF), pH 1.8, simulated gastric fluid, SGF solubility, Simulated gastric fluid (pH 1.8)
# [8] = water, H2O solubility (mM; salt)
# [9] = water, H2O solubility (mg/mL; salt), HCl salt tested at 100 mg/mL, other salts at 50 mg/mL
structure (smiles),measurement,setting,value
CC(C)[C@@H]1[C@H]2CC[C@H](C2)[C@H]1N.O=C(O)/C=C/C(=O)O [Fumarate Type A],DVS (% H2O uptake at 25 C./80% RH),[1],0.15%
same,DVS (% H2O uptake at 25 C./95% RH),[1],0.16%
same,hygroscopicity classification,[1],not hygroscopic
same,DVS (matrix of results from solid form characterization),[1],Good
same,decomposition or solid form change in stability assay,[2],did not display decomposition or solid form change
same,Solid Form after storage (XRPD),[2]; 25° C./60% RH,Fumarate Type A
same,Solid Form after storage (XRPD),[2]; 40° C./75% RH,Fumarate Type A
same,Stability: 25/60% RH; 40 C./75% RH; 1 week,[2],No significant impurities
same,Form change?,[2],No change
same,Stability (matrix of results from solid form characterization),[2],Good
same,TGA/DSC (matrix of results from solid form characterization),[3],Good
same,XRPD after stirring in medium,[4]; 24 hours in FeSSIF,Additional peaks in the XRPD spectra were observed
same,solubility,[4]; [5],12.4 mg/mL
same,solubility,[4]; [6],17.1 mg/mL
same,pH,[4]; final solution in FaSSIF,3.5
same,pH,[4]; final solution in FeSSIF,4.1
same,pH,[4]; final solution in H2O,3.4
same,pH,[4]; final solution in SGF,3.1
same,solubility,[4]; [7],11.9 mg/mL
same,Solubility (matrix of results from solid form characterization),[4],Moderate
same,solubility,[4]; [8],44.6 mM
same,solubility,[4]; [9],12.3 mg/mL
CC(C)[C@@H]1[C@H]2CC[C@H](C2)[C@H]1N.O=C(O)/C=C\C(=O)O [Maleate Type A],DVS (% H2O uptake at 25 C./80% RH),[1],0.02%
same,DVS (% H2O uptake at 25 C./95% RH),[1],0.07%
same,hygroscopicity classification,[1],not hygroscopic
same,DVS (matrix of results from solid form characterization),[1],Good
same,decomposition or solid form change in stability assay,[2],did not display decomposition or solid form change
same,Solid Form after storage (XRPD),[2]; 25° C./60% RH,Maleate Type A
same,Solid Form after storage (XRPD),[2]; 40° C./75% RH,Maleate Type A
same,Stability: 25/60% RH; 40 C./75% RH; 1 week,[2],No significant impurities
same,Form change?,[2],No change
same,Stability (matrix of results from solid form characterization),[2],Good
same,TGA/DSC (matrix of results from solid form characterization),[3],Good
same,solubility,[4]; [5],> 27 mg/mL
same,solubility,[4]; [6],> 26 mg/mL
same,pH,[4]; final solution in FaSSIF,4.6
same,pH,[4]; final solution in FeSSIF,4.7
same,pH,[4]; final solution in H2O,3.8
same,pH,[4]; final solution in SGF,4.9
same,solubility,[4]; [7],> 28 mg/mL
same,Solubility (matrix of results from solid form characterization),[4],Good
same,solubility,[4]; [8],> 92.8 mM
same,solubility,[4]; [9],> 25 mg/mL
"CC(C)C[C@H]1[C@H]2CC[C@H](C2)[C@@H]1N.Cl (single isomer, unassigned) [Compound 112-P1]",EC50,MUC1-fs,> 32 µM
same,ECMax,MUC1-fs,26.46%
same,EC50,MUC1-wt,< 32 µM
same,WT ECMax,MUC1-wt,9.15%
"Cl.N[C@@H]1[C@@H]2CC[C@@H](C2)[C@H]1C1CCCCC1 (single isomer, unassigned) [Compound 118-P1]",EC50,MUC1-fs,> 32 µM
same,ECMax,MUC1-fs,−7.97%
same,EC50,MUC1-wt,> 32 µM
same,WT ECMax,MUC1-wt,9.54%
"Cl.N[C@H]1[C@@H]2CC[C@@H](C2)[C@@H]1C1CCCCC1 (single isomer, unassigned) [Compound 119-P1]",EC50,MUC1-fs,> 32 µM
same,ECMax,MUC1-fs,−14.14%
same,EC50,MUC1-wt,> 32 µM
same,WT ECMax,MUC1-wt,−14.31%
CC(C)C[C@@H]1[C@H]2CC[C@H](C2)[C@H]1N.Cl (racemic) [Compound 111],EC50,MUC1-fs,> 32 µM
same,ECMax,MUC1-fs,−9.02%
same,EC50,MUC1-wt,> 32 µM
same,WT ECMax,MUC1-wt,10.58%
"C[C@@H]1[C@H]2CC[C@H](C2)[C@H]1N.Cl (single isomer, unassigned) [Compound 104-P1, (1R,2R,3R,4S)-3-methylbicyclo[2.2.1]heptan-2-amine hydrochloride]",EC50,MUC1-fs,19.6 µM
same,EC50,MUC1-wt,> 32 µM
CC(C)[C@H]1[C@H]2CC[C@H](C2)[C@@H]1N.Cl [Compound 102],EC50,MUC1-fs,8.63 µM
same,ECMax,MUC1-fs,−60.66%
same,EC50,MUC1-wt,> 32 µM
same,WT ECMax,MUC1-wt,−16.83%
"Cl.N[C@H]1[C@@H]2CC[C@@H](C2)[C@@H]1C1CC1 (single isomer, unassigned) [Compound 110-P1, (1R,2S,3S,4S)-3-cyclopropylbicyclo[2.2.1]heptan-2-amine hydrochloride]",EC50,MUC1-fs,8.49 µM
same,EC50,MUC1-wt,> 32 µM
"Cl.N[C@@H]1[C@H]2CC[C@H](C2)[C@H]1C1CC1 (single isomer, unassigned) [Compound 110-P2]",ECMax,MUC1-fs,−47.09%
same,WT ECMax,MUC1-wt,−12.31%
"Cl.N[C@@H]1[C@H]2CC[C@H](C2)[C@H]1c1ccccc1 (single isomer, unassigned) [Compound 121-P2]",EC50,MUC1-fs,> 32 µM
same,ECMax,MUC1-fs,−9.03%
same,EC50,MUC1-wt,> 32 µM
same,WT ECMax,MUC1-wt,7.35%
CCC[C@@H]1[C@H]2CC[C@H](C2)[C@H]1N.Cl (racemic) [Compound 107-rac],EC50,MUC1-fs,> 32 µM
same,ECMax,MUC1-fs,10.08%
same,EC50,MUC1-wt,> 32 µM
same,WT ECMax,MUC1-wt,8.64%
Cl.N[C@@H]1[C@@H]2CC[C@@H](C2)[C@H]1C1CC1 (racemic) [Compound 109],EC50,MUC1-fs,0.45 µM
same,ECMax,MUC1-fs,−73.56%
same,EC50,MUC1-wt,> 32 µM
same,WT ECMax,MUC1-wt,−12.5%
Cl.N[C@H]1[C@@H]2CC[C@@H](C2)[C@@H]1C1CCCCC1 (racemic) [Compound 119],EC50,MUC1-fs,> 32 µM
same,ECMax,MUC1-fs,20.39%
same,EC50,MUC1-wt,> 32 µM
same,WT ECMax,MUC1-wt,14.48%
CCC[C@@H]1[C@@H]2CC[C@@H](C2)[C@H]1N.Cl [Compound 108-P2],EC50,MUC1-fs,5.6 µM
same,ECMax,MUC1-fs,22.43%
same,EC50,MUC1-wt,> 32 µM
same,WT ECMax,MUC1-wt,16.1%
CC(C)[C@@H]1[C@@H]2CC[C@@H](C2)[C@H]1N.Cl [Compound 101],EC50,MUC1-fs,0.524 µM
same,ECMax,MUC1-fs,−68.74%
same,EC50,MUC1-wt,12.3 µM
same,WT ECMax,MUC1-wt,18.4%
"C[C@@H]1[C@H]2CC[C@H](C2)[C@H]1N.Cl (single isomer, unassigned) [Compound 104-P1]",ECMax,MUC1-fs,−47.64%
same,WT ECMax,MUC1-wt,−13.75%
"Cl.N[C@@H]1[C@@H]2CC[C@@H](C2)[C@H]1C1CCC1 (single isomer, unassigned) [Compound 113-P1]",EC50,MUC1-fs,> 32 µM
same,ECMax,MUC1-fs,−13.24%
same,EC50,MUC1-wt,> 32 µM
same,WT ECMax,MUC1-wt,−9.71%
"CC(C)C[C@@H]1[C@@H]2CC[C@@H](C2)[C@H]1N.Cl (single isomer, unassigned) [Compound 112-P2]",EC50,MUC1-fs,> 32 µM
same,ECMax,MUC1-fs,13.14%
same,EC50,MUC1-wt,> 32 µM
same,WT ECMax,MUC1-wt,7.52%
"Cl.N[C@@H]1[C@H]2CC[C@H](C2)[C@H]1C1CCCC1 (single isomer, unassigned) [Compound 117-P2]",EC50,MUC1-fs,> 32 µM
same,ECMax,MUC1-fs,−15.88%
same,EC50,MUC1-wt,> 32 µM
same,WT ECMax,MUC1-wt,−15.43%
